Measured values: patent US8747912B2, “Drug delivery system” (Isis Innovation Limited, priority 2000, dated 2014)

Test: Release of the drugs from their intercalation compounds in phosphate buffer solution at 37° C.
Format: physicochemical
Conditions: stirred at 1000 rpm, intercalate in [LiAl2(OH)6]Cl.H2O, UV of filtrate
Description: Release of the drugs from their intercalation compounds was performed in each case by the addition of 0.0250 g-0.100 g of the intercalation compound to 250 mL phosphate buffer solution at 37° C. […] The release in phosphate buffer at pH 7 and at pH 4 was investigated. Aliquots were removed from the flask at regular time intervals, the solution was filtered and the UV spectrum of the filtrate recorded in a […] quartz cuvette. A baseline scan using the neat solution was recorded prior to the collection of the first spectrum of the filtrate.

Structure (SMILES) | release of the drug from its intercalation compound (phosphate buffer pH 4, 37° C.) | release of the drug from its intercalation compound (phosphate buffer pH 7, 37° C.)
O=C([O-])Cc1ccccc1Nc1c(Cl)cccc1Cl.[Na+] [Diclofenac, sodium (2-(2,6-dichloroanilino)phenyl)acetate] | rapid | slower and more controlled
COc1ccc2cc([C@H](C)C(=O)O)ccc2c1 [Naproxen, (+)-2-(6-methoxy-2-naphthyl)propionic acid] | rapid | slower and more controlled
O=C(O)Cc1ccc(-c2ccccc2)cc1 [4-biphenylacetic acid] | rapid | slower and more controlled
